Measurements published in ChEMBL document CHEMBL1138698, “Ketoamide-based inhibitors of cysteine protease, cathepsin K: P3 modifications” (J Med Chem, 2004).

Assays:
Cathepsin K = biological target: T1, Cathepsin K (Homo sapiens, UniProt P43235); experiment: Inhibitory potency against human Cathepsin K
T1 sequence (P43235 whole entry): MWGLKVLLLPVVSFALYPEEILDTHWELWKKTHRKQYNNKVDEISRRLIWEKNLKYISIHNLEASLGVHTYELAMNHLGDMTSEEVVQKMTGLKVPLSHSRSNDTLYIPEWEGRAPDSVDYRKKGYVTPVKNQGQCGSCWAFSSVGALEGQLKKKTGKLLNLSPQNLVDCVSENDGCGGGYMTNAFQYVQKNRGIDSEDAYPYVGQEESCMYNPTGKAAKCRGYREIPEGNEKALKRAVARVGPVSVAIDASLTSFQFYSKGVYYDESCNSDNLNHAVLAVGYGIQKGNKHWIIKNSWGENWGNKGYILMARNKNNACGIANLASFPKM

[1] = biological target: Cathepsin (B and K) (Homo sapiens) (UniProt P43235+P07858); experiment: Selectivity for human Cathepsins B and K; format: protein assay
[2] = biological target: Cathepsin (H and K) (Homo sapiens) (UniProt P09668+P43235); experiment: Selectivity for human Cathepsins H and K; format: protein assay
[3] = biological target: Cathepsin (S and K) (Homo sapiens) (UniProt P25774+P43235); experiment: Selectivity for human Cathepsins S and K; format: protein assay
[4] = biological target: Cathepsin (L and K) (Homo sapiens) (UniProt P43235+P07711); experiment: Selectivity for human Cathepsins L and K; format: protein assay
[5] = biological target: Cathepsin (V and K) (Homo sapiens) (UniProt P43235+O60911); experiment: Selectivity for human Cathepsins V and K; format: protein assay
Cathepsin (V and K) (Homo sapiens), sequence (O60911 whole entry, looked up, one chain of several): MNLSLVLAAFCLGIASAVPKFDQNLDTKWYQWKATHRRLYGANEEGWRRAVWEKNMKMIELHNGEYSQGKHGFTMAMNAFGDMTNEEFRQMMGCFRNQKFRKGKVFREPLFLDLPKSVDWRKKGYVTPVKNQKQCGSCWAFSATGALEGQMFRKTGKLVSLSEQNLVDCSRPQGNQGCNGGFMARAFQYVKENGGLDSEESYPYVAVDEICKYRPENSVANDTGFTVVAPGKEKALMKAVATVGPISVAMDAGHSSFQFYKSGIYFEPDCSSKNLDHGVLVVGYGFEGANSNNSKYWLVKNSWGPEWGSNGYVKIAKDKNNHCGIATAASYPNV

Cathepsin (L and K) (Homo sapiens), sequence (P07711 whole entry, looked up, one chain of several): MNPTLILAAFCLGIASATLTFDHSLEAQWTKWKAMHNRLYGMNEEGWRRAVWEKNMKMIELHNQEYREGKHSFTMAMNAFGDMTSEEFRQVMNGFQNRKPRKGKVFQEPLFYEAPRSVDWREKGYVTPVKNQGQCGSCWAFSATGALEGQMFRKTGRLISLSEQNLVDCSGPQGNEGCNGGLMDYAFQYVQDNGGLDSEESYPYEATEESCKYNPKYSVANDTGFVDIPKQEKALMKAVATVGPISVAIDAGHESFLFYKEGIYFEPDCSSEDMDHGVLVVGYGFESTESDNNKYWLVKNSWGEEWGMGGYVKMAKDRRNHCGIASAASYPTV
Cathepsin (S and K) (Homo sapiens), sequence (P25774 whole entry, looked up, one chain of several): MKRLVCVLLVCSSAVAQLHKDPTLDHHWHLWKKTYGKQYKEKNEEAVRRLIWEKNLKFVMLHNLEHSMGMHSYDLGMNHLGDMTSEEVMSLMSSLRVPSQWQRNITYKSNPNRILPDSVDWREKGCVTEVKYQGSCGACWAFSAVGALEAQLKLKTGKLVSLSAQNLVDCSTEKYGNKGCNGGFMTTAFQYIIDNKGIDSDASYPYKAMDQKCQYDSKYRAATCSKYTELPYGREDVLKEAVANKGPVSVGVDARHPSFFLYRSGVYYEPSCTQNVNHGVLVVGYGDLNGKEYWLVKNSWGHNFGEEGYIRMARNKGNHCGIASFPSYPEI
Cathepsin (H and K) (Homo sapiens), sequence (P09668 whole entry, looked up, one chain of several): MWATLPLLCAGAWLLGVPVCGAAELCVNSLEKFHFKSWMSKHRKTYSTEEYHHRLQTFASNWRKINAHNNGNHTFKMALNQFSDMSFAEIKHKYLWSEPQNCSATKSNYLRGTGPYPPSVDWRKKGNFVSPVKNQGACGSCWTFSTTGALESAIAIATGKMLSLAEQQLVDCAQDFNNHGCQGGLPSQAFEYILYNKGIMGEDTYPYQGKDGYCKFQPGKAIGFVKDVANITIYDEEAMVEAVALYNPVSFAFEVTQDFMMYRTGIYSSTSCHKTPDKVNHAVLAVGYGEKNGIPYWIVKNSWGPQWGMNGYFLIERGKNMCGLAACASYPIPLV

Row | SMILES | IC50 (Cathepsin K) | other results
1 | CCCC[C@H](NC(=O)OCC1(COc2ccnc(N3CCOCC3)n2)CCC1)C(=O)C(=O)N[C@H](C)c1ccccc1 | 54 nM | 
2 | CCCC[C@H](NC(=O)OCC1(CSc2ncccn2)CCC1)C(=O)C(=O)N[C@H](C)c1ccccc1 | 11 nM | 
3 | CCCC[C@H](NC(=O)OCC1(CCCOc2ccnc(Cl)n2)CCC1)C(=O)C(=O)N[C@H](C)c1ccccc1 | > 12000 nM | 
4 | CCCC[C@H](NC(=O)OCC1(COc2ncccn2)CCC1)C(=O)C(=O)N[C@H](C)c1ccccc1 | 260 nM | 
5 | CCCC[C@H](NC(=O)OCC1(COc2ccnc(Cl)n2)CCC1)C(=O)C(=O)N[C@H](C)c1ccccc1 | 85 nM | 
6 | CCCC[C@H](NC(=O)OCC1(COc2ccnc(N3CCN(c4ccccc4)CC3)n2)CCC1)C(=O)C(=O)N[C@H](C)c1ccccc1 | 31 nM | 
7 | CCCC[C@H](NC(=O)OCC1(CSc2nc3ccccc3o2)CCC1)C(=O)C(=O)N[C@H](C)c1ccccc1 | 51 nM | 
8 | CCCC[C@H](NC(=O)OCC1(COc2ccnc(N3CCN(C)CC3)n2)CCC1)C(=O)C(=O)N[C@H](C)c1ccccc1 | 54 nM | 
9 | CCCC[C@H](NC(=O)OCC1(COc2nccs2)CCC1)C(=O)C(=O)N[C@H](C)c1ccccc1 | 37 nM | 
10 | CCCC[C@H](NC(=O)OCC1(CSc2nccn2C)CCC1)C(=O)C(=O)N[C@H](C)c1ccccc1 | 61 nM | 
11 | CCCC[C@H](NC(=O)OCC1(Cc2nc(-c3ccccc3)cs2)CCC1)C(=O)C(=O)N[C@H](C)c1ccccc1 | 5.5 nM | Selectivity [1]: 660; Selectivity [2]: > 230; Selectivity [3]: 22; Selectivity [4]: 220; Selectivity [5]: 20
12 | CCCC[C@H](NC(=O)OCC1(COc2nnc(C)cc2-c2ccccc2)CCC1)C(=O)C(=O)N[C@H](C)c1ccccc1 | 57 nM | 
13 | CCCC[C@H](NC(=O)OCC1(CSc2nccc(-c3ccc(Cl)cc3)n2)CCC1)C(=O)C(=O)N[C@H](C)c1ccccc1 | 9.5 nM | 
14 | CCCC[C@H](NC(=O)OCC1(CSc2nccn2-c2ccccc2)CCC1)C(=O)C(=O)N[C@H](C)c1ccccc1 | 87 nM | 
15 | CCCC[C@H](NC(=O)OCC1(CCSc2nccn2C)CCC1)C(=O)C(=O)N[C@H](C)c1ccccc1 | > 12000 nM | 
16 | CCCC[C@H](NC(=O)OCC1(COc2ncnc3ccsc23)CCC1)C(=O)C(=O)N[C@H](C)c1ccccc1 | 98 nM | 
17 | CCCC[C@H](NC(=O)OCC1(CSc2ncc(-c3ccc(Cl)cc3)n2C)CCC1)C(=O)C(=O)N[C@H](C)c1ccccc1 | 230 nM | 
18 | CCCC[C@H](NC(=O)OCC1(CCCSc2nccn2C)CCC1)C(=O)C(=O)N[C@H](C)c1ccccc1 | 1900 nM | 
19 | CCCC[C@H](NC(=O)OCC1(COc2nc(-c3ccc(C)cc3)cs2)CCC1)C(=O)C(=O)N[C@H](C)c1ccccc1 | 150 nM | 
20 | CCCC[C@H](NC(=O)OCC1(COc2nc(-c3ccccc3)ns2)CCC1)C(=O)C(=O)N[C@H](C)c1ccccc1 | 50 nM | 
21 | CCCC[C@H](NC(=O)OCC1(CSc2nccs2)CCC1)C(=O)C(=O)N[C@H](C)c1ccccc1 | 17 nM | Selectivity [1]: 390; Selectivity [2]: > 720; Selectivity [3]: 4; Selectivity [4]: 250; Selectivity [5]: 41
